From article PMC9253272 (Frontiers in Pharmacology, 2022)
Structures can show the parent of a compound that is named as a salt. Where two headings read alike, the source gives them in different places.

Key:
BV-2 microglial cells [1] = assay: LPS-induced nitrite release in BV-2 microglial cells (Griess reagent); type: cell-based; settings: BV-2 cells; for IC50: pre-incubation 1 h (0.03-2.0 mM), then LPS 24 h
Experimental: (§1) In brief, 50 μl cell supernatants were mixed with 50 μl Griess regent in 96-well-plate and reacted for about 5–10 min at room temperature. Read plate at 540 nm by a Microplate reader (Infinite M200, Molecular Device).
Supernatants were collected for nitrite analysis.

[2] = rat plasma, 50 mg/kg i.p.
AMPK [3] = test system: AMPK; design: method as in Ma et al., 2014; settings: ref Ma et al., 2014; cited from earlier work
BV-2 microglial cells [4] = assay: Cellular pharmacokinetics: uptake of metformin into BV-2 microglia (LC-MS/MS); settings: BV-2 cells
From the text: (§2) The Michaelis-Menten equation with one saturable component was fit to the corrected uptake rate and the estimated Km and Vmax values are presented.

in vitro = settings: mouse, BV-2 microglial cells
From the text: as §2

AMPK [5] = assay: AMPK phosphorylation (p-AMPK Thr 172) by immunoblot in BV-2 microglial cells; type: cell-based; settings: for onset time of AMPK activation: 1 mM, time course; for concentration at which activation of AMPK (p-AMPK) was observed (lowest effective): 1 h incubation
Experimental: When reached 80% confluence, cells were seeded in 12-well or 6-well plates to perform further experiments.

in vivo [6] = settings: male, Sprague-Dawley, rat, brain, 50 mg/kg
in vivo [7] = settings: male, Sprague-Dawley, rat, plasma, ip, 50 mg/kg
[8] = test system: primary rat cortical neurons; assay: Oxygen and glucose deprivation (OGD) of primary cortical neurons, MTT viability; type: cell-based; settings: 0.5 and 1 mM, 24 h pre-treatment, OGD 3 h, reperfusion 24 h
Experimental: The culture medium was replenished with Neurobasal medium (Life Technologies) supplemented with 2% B27 (Life Technologies) 5 h after isolation, and half of the culture media was changed every 2 days, after 6 days of culture, and the neurons were used for further experiments.
Cells were transferred to a hypoxia incubator with 1% oxygen and 5% CO2 for 3 h. […] Control cells were not submitted to OGD and were maintained under normal conditions.

tMCAO rats = settings: 50 mg/kg/day i.p., four weeks after tMCAO
[9] = test system: rat primary cortical neurons; settings: microglia treated with 1 mM, LPS 24 h; neurons 24 h
Experimental: Primary rat cortical microglia cells were prepared from newborn to 2–3 days-old SD strains. […] The supernatant was discarded after centrifuging at 1,100 × rpm for 10 min, the pellet was resuspended, and cortices were fully dissociated by pipetting, the cell suspension was filtered through a 70 μm mesh and transferred into a 75-cm^2 culture flask with poly-L-lysine (PLL, Sigma-Aldrich) coated. Flasks were incubated at 37°C and 5% CO2, and half of the culture media were changed every 2 days, after 2 weeks of culture, primary microglia were harvested by shaking the flask for 2 h at 200 × rpm, and then seeded into new plates pre-coated with PLL. […]
The neuron culture medium was collected and LDH was measured by the LDH assay kit (BioAssay Systems) according to the manufacturer’s instructions.
Data were presented as mean ± SD, statistical analysis was performed with one-way ANOVA followed by a Dunnett’s post hoc tests, ^∗∗ p < 0.01 versus LPS group; ^## p < 0.01, versus LPS with SHY-treated group. […] Results are expressed as mean ± SD (n = 5). […] Cell viability was analyzed by MTT assay, results are expressed as mean ± SD (n = 8). […]

BV-2 microglial cells [10] = settings: BV-2 cells, 1 mM, 1 h pre-incubation, LPS 200 ng/ml
Experimental: as §1
Data were presented as mean ± SD, statistical analysis was performed with one-way ANOVA followed by a Dunnett’s post hoc tests, ^∗∗ p < 0.01 versus LPS group; ^## p < 0.01, versus LPS with SHY-treated group. […] Results are expressed as mean ± SD (n = 5). Data are presented as mean ± SD, statistical analysis was performed with one-way ANOVA, followed by a Dunnett’s post hoc tests, ^∗∗ p < 0.01 versus LPS group; ^# p < 0.05, versus LPS with SHY-treated group.

AMPK [11] = settings: initial screening; ref Zhen et al., 2019; cited from earlier work
[12] = 15 min uptake, Michaelis-Menten fit
[13] = rat brain, metformin measured, 50 mg/kg i.p.

CN(C)C(=N)N=C(N)N [metformin hydrochloride]
IC50 (BV-2 microglial cells [1]; Mus musculus): 1070 µM
CLz ([2]; metformin measured): 7,068.89 ± 949.45 ml/hr/kg
Cmax ([2]; metformin measured): 6640 ± 2110 ng/mL
Vz ([2]; metformin measured): 79,683.93 ± 23,176.87 ml/kg
treatment time required to activate AMPK (AMPK [3]): ≥ 4 h
Vmax of metformin uptake (BV-2 microglial cells [4]; [12]): 4.6 ± 0.6 nmol/min/mg protein
Km at 15 min (in vitro): 7.1 ± 1.7 mM
onset time of AMPK activation (AMPK [5]; BV-2 cells): 4 h
concentration at which activation of AMPK (p-AMPK) was observed (lowest effective) (AMPK [5]; BV-2 cells): 1.0 mM
concentration at 1 h (in vivo [6]; intraperitoneal): 190 ± 32 ng/g
concentration at 2 h (in vivo [6]; intraperitoneal): 110 ± 12 ng/g
AUC(0-inf) (in vivo [6]; ip): 1890 ± 80 ng·h/mL
AUC(0-t) (in vivo [6]; ip): 1600 ± 180 ng·h/mL
Cmax (in vivo [6]; ip): 320 ± 80 ng/g
MRT inf (in vivo [6]; ip): 12.2 ± 2.9 h
MRT last (in vivo [6]; ip): 7.71 ± 0.45 h
t max (in vivo [6]; ip): 0.5 h
AUC (in vivo [7]): 7170 ± 275 ng·h/mL
AUC(0-inf) (in vivo [7]): 7170 ± 280 ng·h/mL
AUC(0-t) (in vivo [7]): 6590 ± 270 ng·h/mL
Cmax (in vivo [7]): 6630 ± 2100 ng/mL
MRT inf (in vivo [7]): 6.06 ± 1.73 h
MRT last (in vivo [7]): 3.48 ± 0.65 h
t max (in vivo [7]): 0.5 h
OGD-induced neuronal injury (cell viability, MTT) [8]: did not elicit such an effect
atrophic volume of the ischemic brain versus vehicle (tMCAO rats): effectively reduced

CN(C)C(=N)NC(=N)N.O=C(O)[C@H](O)[C@@H](O)CO [SHY-01, metformin threonate]
IC50 (BV-2 microglial cells [1]): 302 µM
half-life (t 1/2) [2]: 8.22 ± 5.52 h
maximum plasma concentration (Cmax) [2]: 11.29 ± 3.9 ng/mL
AUC (0−t) ([2]; metformin measured): 11470 ± 35 ng·h/mL
AUC (0−∞) ([2]; metformin measured): 12240 ± 40 ng·h/mL
CLz ([2]; metformin measured): 4,116.73 ± 422.20 ml/hr/kg
Cmax ([2]; metformin measured): 11300 ± 3900 ng/mL
MRT (0−t) ([2]; metformin measured): 2.69 ± 0.45 H
MRT (0−∞) ([2]; metformin measured): 5.06 ± 2.54 H
Vz ([2]; metformin measured): 50,055.01 ± 36,787.23 ml/kg
t 1/2 ([2]; metformin measured): 8.22 ± 5.524 H
t max ([2]; metformin measured): 0.5 H
metformin concentration in the brain (1 h after 50 mg/kg i.p.): 0.32 ± 0.023 µg/g
metformin concentration in the brain (2 h after 50 mg/kg i.p.): 0.25 ± 0.032 µg/g
AUC (0−t) [13]: 1870 ± 230 ng·h/mL
AUC (0−∞) [13]: 2050 ± 180 ng·h/mL
Cmax [13]: 520 ± 110 ng/mL
MRT (0−t) [13]: 5.73 ± 0.63 h
MRT (0−∞) [13]: 8.19 ± 0.66 h
t max [13]: 0.5 h
LDH release of neurons in response to conditioned medium of LPS-activated microglia, versus control or metformin hydrochloride [9]: remarkably decrease
accumulation of metformin compared with the same concentration of metformin hydrochloride (BV-2 microglial cells [4]): more rapid
Vmax of metformin uptake (BV-2 microglial cells [4]; [12]): 9.5 ± 1.2 nmol/min/mg protein
intracellular metformin contents compared with metformin hydrochloride (BV-2 microglial cells [4]; LC-MS/MS): elevated intracellular metformin contents
Km (BV-2 microglial cells [4]; read-out: Km of metformin uptake, 15 min uptake, Michaelis-Menten fit): 7.2 ± 1.5 mM
inhibition of LPS-induced pro-inflammatory cytokine expression (TNF-α, IL-1β, iNOS) compared with metformin hydrochloride (BV-2 microglial cells [10]): stronger effect
p-AMPK level compared to the same concentration of metformin hydrochloride (AMPK [5]; BV-2 cells, 0.3 mM, 1 h): significantly higher
effect on LPS-reduced AMPK phosphorylation (AMPK [5]; BV-2 cells, 1 mM pre-incubation, LPS 200 ng/ml 0-4 h): significantly reverse
onset time of AMPK activation (AMPK [5]; BV-2 cells): 0.5 h
concentration at which activation of AMPK (p-AMPK) was observed (lowest effective) (AMPK [5]; BV-2 cells): 0.3 mM
time to activation of AMPK after treatment (AMPK [5]; discussion statement): ≤ 30 min
OGD-induced neuronal injury (cell viability, MTT) [8]: significantly prevented
Rope climbing test, difference between SHY-01 and metformin hydrochloride (tMCAO rats): did not differ
atrophic volume of the ischemic brain versus vehicle (tMCAO rats): effectively reduced
body weight changes, difference between SHY-01 and metformin hydrochloride (tMCAO rats): did not differ
brain atrophy compared with metformin hydrochloride (tMCAO rats): more potent reduction
neurologic score compared with metformin hydrochloride (tMCAO rats): significantly better improvement
spatial learning in the Morris water maze test compared with metformin hydrochloride (tMCAO rats): significantly better improvement
potency on AMPK activation among the metformin salts screened (AMPK [11]): strongest potency

c1cc(-c2cnn3cc(-c4ccc(OCCN5CCCCC5)cc4)cnc23)ccn1 [compound C]
effect on the inhibitory effect of SHY-01 on LPS-induced nitrite, TNF-α and IL-1β (BV-2 microglial cells [1]; compound C 10 μM 1 h pre-incubation, SHY-01 1 mM, LPS 200 ng/ml): abolished
